In patent US20200101182A1, “METHODS FOR INACTIVATING, ON MEDICAL INSTRUMENTS AND DEVICES, VIRUSES CONTAINING RNA AND DNA, AND APPARATUSES FOR IMPLEMENTATING SAME” (priority 2014, published 2020):

Tested on: HBV
Assay: Photodynamic inactivation of HBV in plasma by methylene blue solution under monochromatic light; HBV DNA in lymphocytes by PCR
Assay type: cell-based, human
Settings: for amount of HBV DNA particles in lymphocytes, computed by PCR: HBV containing plasma, 90 minutes
Description: Medical instruments are placed in the cuvette 5 within the aforementioned aqueous solution of methylene blue 6, and the aforementioned door closed. The medical devices in the chamber 4 are then subjected to irradiation by emitters 7 of light energy, such as monochromatic radiation with a maximum specific content of monochromatic light with a wavelength of 590 nm or 660 nm, with a total light output of not less than 280 lm. The exposure time may be set to 90 minutes, e.g., using the aforesaid timer 9. After treatment, in the device 1, the viruses remaining on the medical instruments are completely inactivated, i.e., the viruses lose their ability to infect cells of the human body. Instruments so sterilized are then reliably reused without risk of infecting patients.
Verification steps of the employment of the claimed apparatuses and methods within an installation and carried out on in a biological environment contaminated by viruses, such as blood plasma.
Monochromatic radiation emitters 7 with a range of 590±2 nm are employed. After treatment in the inventive installation method, i.e., within device 1, samples of HBV containing plasma were treated for 90 minutes in a 0.01% solution of methylene blue, and afterward the amount of lymphocytes, computed by Polymerase Chain Reaction (PCR), of HBV DNA particles was zero, i.e., they were not found.
Monochromatic radiation emitters 7 with a range of 590±2 nm are employed. After treatment in the device 1, samples of HBV containing plasma were treated for 90 minutes in a 0.02% solution of methylene blue. As above, the amount of lymphocytes, computed by PCR, of HBV DNA particles were not found.
Monochromatic radiation emitters 7 with a range of 660±2 nm were employed. After treatment in the device 1, as set forth hereinabove, samples of HBV containing plasma were treated for 90 minutes in a 0.01% solution of methylene blue.
Monochromatic radiation emitters 7 with a range of 660±2 nm were employed.

CN(C)c1ccc2nc3ccc(=[N+](C)C)cc-3sc2c1 [methylene blue]
HBV inactivation (0.01% methylene blue solution, emitter range 588-592 nm): full effect | HBV inactivation (0.01% methylene blue solution, emitter range 658-662 nm): full sterilization treatment effect was reached | HBV inactivation (0.02% methylene blue solution, emitter range 588-592 nm): full effect | HBV inactivation (0.02% methylene blue solution, emitter range 658-662 nm): full effect | amount of HBV DNA particles in lymphocytes, computed by PCR (0.01% solution of methylene blue, emitters 590±2 nm): zero | amount of HBV DNA particles in lymphocytes, computed by PCR (0.01% solution of methylene blue, emitters 660±2 nm): found no HBV DNA particles | amount of HBV DNA particles in lymphocytes, computed by PCR (0.02% solution of methylene blue, emitters 590±2 nm): not found | amount of HBV DNA particles in lymphocytes, computed by PCR (0.02% solution of methylene blue, emitters 660±2 nm): no lymphocytes, computed by PCR, of the HBV DNA particles were found
